{"source": "patent US10456366B2", "about": "“Composition and methods for tissue regeneration” (Chiou Consulting, Inc., priority 2017, dated 2019)", "origin": "cited, not measured here", "key": {"[1]": {"tested_on": "rats", "conditions": "water containing 10% of PG, two years"}, "[2]": {"tested_on": "dogs", "conditions": "food containing 8% of PG, two years"}}}
{"smiles": "CC(O)CO", "note": "(centres unmarked) [PG, propylene glycol]", "values": [{"measurement": "adverse effects on feeding", "setting": "[1]", "value": "no adverse effects"}, {"measurement": "adverse effects on feeding", "setting": "[2]", "value": "no adverse effects"}]}
